Legend:
SW620 cells = experiment: In vitro cell cycle analysis assay; format: cell-based; conditions: Homo sapiens, SW-620, 24 hours with compound, DNA content by FACS, read-out: 50% inhibition of enzyme activity at a concentration of
Procedure: (d) In Vitro Cell Cycle Analysis Assay
This assay determines the ability of a test compound to arrest cells in specific phases of the cell cycle. Many different mammalian cell lines could be used in this assay and SW620 cells are included here as an example. SW620 cells were seeded at 7×10^5 cells per T25 flask (Costar) in 5 ml L-15 (5% FCS, 1% L-glutamine). Flasks were then incubated overnight in a humidified 37° C. incubator with 5% CO2. The following day, 5 μl of L-15 (5% FCS, 1% L-glutamine) carrying the appropriate concentration of test compound solubilised in DMSO was added to the flask. A no compound control treatment was also included (0.5% DMSO). The cells were then incubated for a defined time (24 hours) with compound. After this time the media was aspirated from the cells and they were washed with 5 ml of prewarmed (37° C.) sterile PBSA, then detached from the flask by brief incubation with trypsin and followed by resuspension in 5 ml of 1% Bovine Serum Albumin (BSA, Sigma-Aldrich Co.) in sterile PBSA. The samples were then centrifuged at 2200 rpm for 10 min. The supernatant was aspirated to leave 200 μl of the PBS/BSA solution. The pellet was resuspended in this 200 μl of solution by pipetting 10 times to create a single cell suspension. One ml of ice-cold 80% ethanol was slowly added to each cell suspension and the samples stored at −20° C. overnight or until required for staining. […]
Each sample was then syringed 10 times using 21-guage needle. The samples were then transferred to LPS tubes and DNA content per cell analysed by Fluorescence activated cell sorting (FACS) using a FACScan flow cytometer (Becton Dickinson). Typically 30,000 events were counted and recorded using CellQuest v1.1 software (Verity Software). Cell cycle distribution of the population was calculated using Modfit software (Verity Software) and expressed as percentage of cells with 2N (G0/G1), 2N4N (S phase) and with 4N (G2/M) DNA content.

Aurora-B kinase = Aurora-B kinase (Homo sapiens, UniProt Q96GD4); experiment: In vitro Aurora-B kinase inhibition test; format: biochemical; conditions: recombinant Aurora-B, peptide substrate, [γ33P]ATP, 60 minutes at room temperature; read-out: 50% inhibition of enzyme activity at a concentration of
Procedure: (b) In Vitro Aurora-B Kinase Inhibition Test
This assay determines the ability of a test compound to inhibit serine-threonine kinase activity. DNA encoding Aurora-B may be obtained by total gene synthesis or by cloning. This DNA may then be expressed in a suitable expression system to obtain polypeptide with serine-threonine kinase activity.
For the large scale expression of Aurora-B kinase activity, Sf21 insect cells were grown at 28° C. in TC100 medium supplemented with 10% foetal calf serum (Viralex) and 0.2% F68 Pluronic (Sigma) on a Wheaton roller rig at 3 r.p.m. When the cell density reached 1.2×10^6 cells ml^−1 they were infected with plaque-pure Aurora-B recombinant virus at a multiplicity of infection of 1 and harvested 48 hours later. All subsequent purification steps were performed at 4° C. Frozen insect cell pellets containing a total of 2.0×10^8 cells were thawed and diluted with lysis buffer (50 mM HEPES (N-[2-hydroxyethyl]piperazine-N′-[2-ethanesulphonic acid]) pH 7.5 at 4° C., 1 mM Na3VO4, 1 mM PMSF (phenylmethylsulphonyl fluoride), 1 mM dithiothreitol, 1 μg/ml aprotinin, 1 μg/ml pepstatin, 1 μg/ml leupeptin), using 1.0 ml per 2×10^7 cells. Lysis was achieved using a sonication homogeniser, following which the lysate was centrifuged at 41,000 g for 35 minutes. Aspirated supernatant was pumped onto a 5 mm diameter chromatography column containing 1.0 ml CM sepharose Fast Flow (Amersham Pharmacia Biotech) which had been equilibrated in lysis buffer. A baseline level of UV absorbance for the eluent was reached after washing the column with 12 ml of lysis buffer followed by 7 ml of wash buffer (50 mM HEPES pH 7.4 at 4° C., 1 mM dithiothreitol). Bound Aurora-B B protein was eluted from the column using a gradient of elution buffer (50 mM HEPES pH 7.4 at 4° C., 0.6 M NaCl, 1 mM dithiothreitol, running from 0% elution buffer to 100% elution buffer over 15 minutes at a flowrate of 0.5 ml/min). Elution fractions (1.0 ml) corresponding to the peak in UV absorbance was collected. […]

[1] = tested on: human tumour cell line SW620; experiment: In vitro cell proliferation assay (BrdU incorporation); format: cell-based; conditions: SW-620, SW620 cells, 48 hours with compound, BrdU incorporation over 2 hour labelling period, read-out: 50% inhibition of enzyme activity at a concentration of
Text: (c) In Vitro cell Proliferation Assay
This and other assays can be used to determine the ability of a test compound to inhibit the growth of adherent mammalian cell lines, for example the human tumour cell line SW620 (ATCC CCL-227). This assay determines the ability of at test compound to inhibit the incorporation of the thymidine analogue, 5′-bromo-2′-deoxy-uridine (BrdU) into cellular DNA. SW620 or other adherent cells were typically seeded at 1×10^5 cells per well in L-15 media (GIBCO) plus 5% foetal calf serum, 1% L-glutamine (100 μl /well) in 96 well tissue culture treated 96 well plates (Costar) and allowed to adhere overnight. The following day the cells were dosed with compound (diluted from 10 mM stock in DMSO using L-15 (with 5% FCS, 1% L-glutamine). Untreated control wells and wells containing a compound known to give 100% inhibition of BrdU incorporation were included on each plate. After 48 hours in the presence/absence of test compound the ability of the cells to incorporate BrdU over a 2 hour labelling period was determined using a Boehringer (Roche) Cell Proliferation BrdU EUSA kit (cat. No. 1 647 229) according to manufacturers directions. Briefly, 15 μl of BrdU labelling reagent (diluted 1:100 in media—L-15, 5% FCS, 1% L-glutamine) was added to each well and the plate returned to a humidified (+5% CO2) 37° C. incubator for 2 hours. After 2 hours the labelling reagent was removed by decanting and tapping the plate on a paper towel. FixDenat solution (50 μl per well) was added and the plates incubated at room temperature for 45 mins with shaking. The FixDenat solution was removed by decanting and tapping the inverted plate on a paper towel. The plate was then washed once with phosphate buffered saline (PBS) and 100 μl/well of Anti-BrdU-POD antibody solution (diluted 1:100 in antibody dilution buffer) added. The plate was then incubated at room temperature with shaking for 90 min. […] The optical density of the wells was then determined at 690 nm wavelength using a Titertek Multiscan plate reader. […]

Aurora-A kinase = target: T1, Aurora-A kinase (Homo sapiens, UniProt O14965); experiment: In vitro Aurora-A kinase inhibition test; format: biochemical
T1 sequence (O14965 1-403): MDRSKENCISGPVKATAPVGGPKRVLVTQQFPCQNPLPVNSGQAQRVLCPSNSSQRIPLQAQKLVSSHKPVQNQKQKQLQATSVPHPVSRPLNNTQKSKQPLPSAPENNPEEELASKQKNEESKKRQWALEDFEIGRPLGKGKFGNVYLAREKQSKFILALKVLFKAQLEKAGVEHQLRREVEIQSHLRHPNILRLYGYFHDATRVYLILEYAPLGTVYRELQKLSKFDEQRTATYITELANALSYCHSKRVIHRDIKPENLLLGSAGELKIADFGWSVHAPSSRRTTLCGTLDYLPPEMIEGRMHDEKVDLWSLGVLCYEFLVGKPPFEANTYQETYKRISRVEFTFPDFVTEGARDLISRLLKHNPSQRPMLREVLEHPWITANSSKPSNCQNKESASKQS

Aurora-B kinase, sequence (Q96GD4 whole entry): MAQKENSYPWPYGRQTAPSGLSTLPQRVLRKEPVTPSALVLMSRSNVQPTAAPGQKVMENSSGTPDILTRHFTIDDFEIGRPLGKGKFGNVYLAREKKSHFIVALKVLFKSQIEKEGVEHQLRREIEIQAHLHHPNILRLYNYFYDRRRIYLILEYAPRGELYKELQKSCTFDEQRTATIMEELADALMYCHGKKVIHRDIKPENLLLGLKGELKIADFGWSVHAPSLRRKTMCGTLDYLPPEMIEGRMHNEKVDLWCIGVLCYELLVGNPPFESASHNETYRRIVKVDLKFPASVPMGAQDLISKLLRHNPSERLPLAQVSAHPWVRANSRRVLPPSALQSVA

| Compound | IC50 (SW620 cells) [nM] | IC50 (Aurora-B kinase) [nM] | IC50 [1] [nM] | IC50 (Aurora-A kinase) [nM] |
| --- | --- | --- | --- | --- |
| COc1cc2c(Nc3cnn(CC(=O)Nc4cccc(F)c4)c3)ncnc2cc1OCCCN1CCC[C@@H]1CO [Compound 27, N-(3-fluorophenyl)-2-{4-[(7-{3-[(2R)-2-(hydroxymethyl)pyrrolidin-1-yl]propoxy}-6-methoxyquinazolin-4-yl)amino]-1H-pyrazol-1-yl}acetamide] | 7 | 5 | 10 | 34 |
| COc1cc2c(Nc3cnn(CC(=O)Nc4cccc(F)c4F)c3)ncnc2cc1OCCCN(CCO)CC(C)C [Compound 60, N-(2,3-difluorophenyl)-2-{4-[(7-{3-[(2-hydroxyethyl)(isobutyl)amino]propoxy}-6-methoxyquinazolin-4-yl)amino]-1H-pyrazol-1-yl}acetamide] | 3 | 8 | 1 | 10 |
| CCN(CCO)CCCOc1ccc2c(Nc3cnn(CC(=O)Nc4cccc(F)c4)c3)ncnc2c1 [Compound 187, 2-{4-[(7-{3-[ethyl(2-hydroxyethyl)amino]propoxy}quinazolin-4-yl)amino]-1H-pyrazol-1-yl}-N-(3-fluorophenyl)acetamide] | 21 | 9 | 1 | 500 |
